Test [1] has as its system brain cancer line U87MG. In words: In vitro anticancer test: growth inhibition in U87MG tumour cells. It counts as cell-based. To be noted: Homo sapiens, U-87 MG, PTEN mutant, multi-dose testing. As to the method: (§1) The in vitro anticancer activity of LL-D45042 is determined by measuring the concentration of compound required to inhibit the growth of 50% of cells in two tumour cell lines. […] The elevated sensitivity is due to its genetic mutation in the PTEN tumor suppressor gene leading to constitutive activation of mTOR signaling pathway. […] LL-D45042 is also evaluated in a binding assay of FKBP12, a cellular receptor of rapamycin, to determine its binding affinity. The results are given in Table 2, with IC50's reported in units of ng/mL.
(§2) These determinations are made by multi-dose testing of LL-D45042 and direct comparisons to the reference samples.

Test [2] deals with breast cancer line MDA435. Kind of test: In vitro anticancer test: growth inhibition in MDA435 tumour cells. It counts as cell-based. To be noted: no PTEN mutation, multi-dose testing. On the procedure:
as §1, §2

For test [3], the target named is FKBP12 (Homo sapiens, UniProt P62942). In words: FKBP12 binding assay. To be noted: FKBP12, a cellular receptor of rapamycin; read-out: Protein Binding, FKBP (IC50) (converted). On the procedure: as §1, §2
Sequence of FKBP12 (P62942 whole entry, species assumed): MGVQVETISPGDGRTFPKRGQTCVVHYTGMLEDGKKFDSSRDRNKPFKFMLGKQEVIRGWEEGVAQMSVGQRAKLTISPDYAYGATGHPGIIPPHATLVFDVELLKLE
The test system of test [4] is brain cancer line U87MG. To be noted: previously established; PTEN mutation, constitutive mTOR activation; cited from earlier work.
For test [5], the system named is breast cancer line MDA435. To be noted: previously established; no PTEN mutation; cited from earlier work.

Converted amounts (≈) assume the structure as drawn. Bounds are passed on as bounds.

As to `CO[C@@H]1C[C@H](C[C@@H](C)[C@@H]2CC(=O)[C@H](C)/C=C(\C)[C@@H](O)[C@@H](O)C(=O)[C@H](C)C[C@H](C)/C=C/C=C/C=C(\C)[C@@H](O)C[C@@H]3CC[C@@H](C)[C@](O)(CC(=O)N4CCCC[C@H]4C(=O)O2)O3)CC[C@H]1O` [LL-D45042], the values for the IC50 in test [1], in test [2] and in test [3] were 0.035 µg/mL (≈ 0.0401 µM), more than 1 µg/mL and 401 nM, respectively.
Regarding `CO[C@H]1C[C@@H]2CC[C@@H](C)[C@@](O)(O2)C(=O)C(=O)N2CCCC[C@H]2C(=O)O[C@H]([C@H](C)C[C@@H]2CC[C@@H](O)[C@H](OC)C2)CC(=O)[C@H](C)/C=C(\C)[C@@H](O)[C@@H](OC)C(=O)[C@H](C)C[C@H](C)/C=C/C=C/C=C/1C` [rapamycin, Rapamycin], the “Sensitivity of U87MG to growth inhibition” value in test [4] is reported as “highly sensitive”. Moreover, the “Sensitivity of MDA435 to growth inhibition” value in test [5] was “rapamycin-resistant phenotype”.

One may read the IC50 as the concentration needed to halve the response being measured.
